From PubChem BioAssay (NCI)
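Assay format: 96-well plates, 48-hour exposure. GI50 marks 50% less growth. TGI: concentration producing complete growth inhibition.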

Experiments:
Assay in all cases: inhibition of tumour cell growth, NCI panel, 48 h
[1] = tested on: SK-MEL-28 melanoma
[2] = tested on: BT-549 breast
[3] = tested on: SW-620 colon
[4] = tested on: SF-295 CNS
[5] = tested on: UO-31 renal
[6] = tested on: UACC-62 melanoma
[7] = tested on: OVCAR-4 ovarian
[8] = tested on: 786-0 renal
[9] = tested on: CCRF-CEM leukemia
[10] = tested on: MOLT-4 leukemia
[11] = tested on: SK-MEL-5 melanoma
[12] = tested on: SF-268 CNS
[13] = tested on: CAKI-1 renal
[14] = tested on: HCT-116 colon
[15] = tested on: SNB-75 CNS
[16] = tested on: SF-539 CNS
[17] = tested on: OVCAR-3 ovarian
[18] = tested on: LOX IMVI melanoma
[19] = tested on: SK-OV-3 ovarian
[20] = tested on: UACC-257 melanoma
[21] = tested on: MDA-MB-435
[22] = tested on: PC-3 prostate
[23] = tested on: NCI-H23 lung
[24] = tested on: M14 melanoma
[25] = tested on: NCI-H226 lung
[26] = tested on: A549 NSCLC
[27] = tested on: NCI-H460 lung
[28] = tested on: OVCAR-5 ovarian
[29] = tested on: EKVX NSCLC
[30] = tested on: SN12C renal
[31] = tested on: T-47D breast
[32] = tested on: ACHN renal
[33] = tested on: HCC-2998 colon
[34] = tested on: KM12 colon
[35] = tested on: COLO 205 colon
[36] = tested on: NCI/ADR-RES ovarian
[37] = tested on: HL-60(TB) leukemia
[38] = tested on: TK-10 renal
[39] = tested on: A498 renal
[40] = tested on: K-562 leukemia
[41] = tested on: HT29 colon
[42] = tested on: SR leukemia
[43] = tested on: DU-145 prostate
[44] = tested on: MDA-MB-231 breast
[45] = tested on: HCT-15 colon
[46] = tested on: HS 578T breast
[47] = tested on: RPMI-8226 leukemia
[48] = tested on: MALME-3M melanoma
[49] = tested on: MCF7 breast
[50] = tested on: SK-MEL-2 melanoma
[51] = tested on: OVCAR-8 ovarian
[52] = tested on: HOP-62 NSCLC
[53] = tested on: HOP-92 NSCLC
[54] = tested on: U251 CNS
[55] = tested on: SNB-19 CNS
[56] = tested on: NCI-H522 lung
[57] = tested on: RXF 393 renal
[58] = tested on: IGROV1 ovarian

Structure (SMILES): COc1cc2nc(Cl)nc(Nc3cccc(C4=Nc5c(N)nc(N)nc5NC(c5ccc(F)cc5)C4)c3)c2cc1OC (stereo not drawn)
- GI50 [1]: 1.62 µM
- TGI [1]: 3.04 µM
- GI50 [2]: 2.29 µM
- TGI [2]: 4.36 µM
- GI50 [3]: 1.76 µM
- TGI [3]: 3.6 µM
- GI50 [4]: 1.82 µM
- TGI [4]: 3.5 µM
- GI50 [5]: 1.55 µM
- TGI [5]: 3.54 µM
- GI50 [6]: 1.76 µM
- TGI [6]: 3.31 µM
- GI50 [7]: 1.63 µM
- TGI [7]: 3.38 µM
- GI50 [8]: 1.56 µM
- TGI [8]: 2.99 µM
- GI50 [9]: 1.05 µM
- TGI [9]: 4.14 µM
- GI50 [10]: 1.77 µM
- TGI [10]: 5.45 µM
- GI50 [11]: 1.65 µM
- TGI [11]: 3.02 µM
- GI50 [12]: 1.68 µM
- TGI [12]: 3.68 µM
- GI50 [13]: 1.61 µM
- TGI [13]: 3.27 µM
- GI50 [14]: 1.76 µM
- TGI [14]: 3.34 µM
- GI50 [15]: 1.13 µM
- TGI [15]: 2.42 µM
- GI50 [16]: 1.53 µM
- TGI [16]: 2.93 µM
- GI50 [17]: 1.85 µM
- TGI [17]: 3.55 µM
- GI50 [18]: 1.78 µM
- TGI [18]: 3.51 µM
- GI50 [19]: 25.7 µM
- TGI [19]: 59.3 µM
- GI50 [20]: 1.96 µM
- TGI [20]: 3.94 µM
- GI50 [21]: 1.66 µM
- TGI [21]: 3.11 µM
- GI50 [22]: 2.17 µM
- TGI [22]: 6.68 µM
- GI50 [23]: 2 µM
- TGI [23]: 4.73 µM
- GI50 [24]: 1.86 µM
- TGI [24]: 3.7 µM
- GI50 [25]: 3.22 µM
- TGI [25]: 16.6 µM
- GI50 [26]: 2.64 µM
- TGI [26]: 7.82 µM
- GI50 [27]: 1.91 µM
- TGI [27]: 3.82 µM
- GI50 [28]: 1.79 µM
- TGI [28]: 3.55 µM
- GI50 [29]: 1.5 µM
- TGI [29]: 3.99 µM
- GI50 [30]: 1.72 µM
- TGI [30]: 3.48 µM
- GI50 [31]: 1.93 µM
- TGI [31]: 4.64 µM
- GI50 [32]: 1.74 µM
- TGI [32]: 3.22 µM
- GI50 [33]: 1.92 µM
- TGI [33]: 3.48 µM
- GI50 [34]: 1.88 µM
- TGI [34]: 3.61 µM
- GI50 [35]: 1.77 µM
- TGI [35]: 3.51 µM
- GI50 [36]: 6.07 µM
- TGI [36]: > 100 µM
- GI50 [37]: 1.95 µM
- TGI [37]: 4.09 µM
- GI50 [38]: 1.95 µM
- TGI [38]: 3.86 µM
- GI50 [39]: 1.01 µM
- TGI [39]: 2.47 µM
- GI50 [40]: 1.96 µM
- TGI [40]: 4.68 µM
- GI50 [41]: 2.05 µM
- TGI [41]: 4.38 µM
- GI50 [42]: 1.96 µM
- TGI [42]: 4.8 µM
- GI50 [43]: 1.77 µM
- TGI [43]: 3.44 µM
- GI50 [44]: 1.49 µM
- TGI [44]: 3.03 µM
- GI50 [45]: 1.96 µM
- TGI [45]: 4.27 µM
- GI50 [46]: 1.98 µM
- TGI [46]: 4.53 µM
- GI50 [47]: 1.77 µM
- TGI [47]: 4.42 µM
- GI50 [48]: 2.01 µM
- TGI [48]: 3.76 µM

Structure (SMILES): Nc1ccccc1NC(=O)c1ccc(NC(=O)C/C=C/c2cccnc2)cc1
- GI50 [1]: 0.962 µM
- TGI [1]: 2.65 µM
- GI50 [2]: 1.17 µM
- TGI [2]: 4.72 µM
- GI50 [3]: 0.231 µM
- TGI [3]: > 50 µM
- GI50 [4]: 1.67 µM
- TGI [4]: 11.3 µM
- GI50 [5]: 1.54 µM
- TGI [5]: > 50 µM
- GI50 [6]: 1.06 µM
- TGI [6]: 4.98 µM
- GI50 [7]: 3.68 µM
- TGI [7]: > 50 µM
- GI50 [8]: 2.74 µM
- TGI [8]: > 50 µM
- GI50 [9]: 0.225 µM
- TGI [9]: > 50 µM
- GI50 [10]: 1.05 µM
- TGI [10]: > 50 µM
- GI50 [49]: 1.09 µM
- TGI [49]: 8.32 µM
- GI50 [11]: 0.957 µM
- TGI [11]: 1.91 µM
- GI50 [12]: 1.93 µM
- TGI [12]: > 50 µM
- GI50 [13]: 2.39 µM
- TGI [13]: > 50 µM
- GI50 [14]: 0.176 µM
- TGI [14]: 4.37 µM
- GI50 [15]: 1.26 µM
- TGI [15]: > 50 µM
- GI50 [16]: 0.181 µM
- TGI [16]: 26.4 µM
- GI50 [50]: 2.39 µM
- TGI [50]: > 50 µM
- GI50 [19]: 2.4 µM
- TGI [19]: > 50 µM
- GI50 [20]: 1.23 µM
- TGI [20]: > 50 µM
- GI50 [51]: 0.159 µM
- TGI [51]: > 50 µM
- GI50 [21]: 1.39 µM
- TGI [21]: 8.02 µM
- GI50 [22]: 1.26 µM
- TGI [22]: > 50 µM
- GI50 [23]: 1.55 µM
- TGI [23]: 26.6 µM
- GI50 [24]: 1.37 µM
- TGI [24]: > 50 µM
- GI50 [25]: 1.43 µM
- TGI [25]: > 50 µM
- GI50 [26]: 2.8 µM
- TGI [26]: > 50 µM
- GI50 [27]: 1.45 µM
- TGI [27]: > 50 µM
- GI50 [28]: 0.803 µM
- TGI [28]: > 50 µM
- GI50 [29]: 2.25 µM
- TGI [29]: > 50 µM
- GI50 [30]: 0.32 µM
- TGI [30]: > 50 µM
- GI50 [31]: 0.623 µM
- TGI [31]: > 50 µM
- GI50 [52]: 2 µM
- TGI [52]: > 50 µM
- GI50 [32]: 2.24 µM
- TGI [32]: > 50 µM
- GI50 [33]: 0.953 µM
- TGI [33]: 4.54 µM
- GI50 [53]: 0.341 µM
- TGI [53]: 8.33 µM
- GI50 [54]: 1.04 µM
- TGI [54]: > 50 µM
- GI50 [55]: 2.25 µM
- TGI [55]: > 50 µM
- GI50 [34]: 8.48 µM
- TGI [34]: > 50 µM
- GI50 [35]: 0.813 µM
- TGI [35]: 7.1 µM
- GI50 [36]: 3.23 µM
- TGI [36]: > 50 µM
- GI50 [37]: 0.448 µM
- TGI [37]: > 50 µM
- GI50 [38]: 0.103 µM
- TGI [38]: > 50 µM
- GI50 [39]: 0.586 µM
- TGI [39]: 2.29 µM
- GI50 [56]: 0.513 µM
- TGI [56]: > 50 µM
- GI50 [40]: 0.289 µM
- TGI [40]: > 50 µM
- GI50 [57]: 0.784 µM
- TGI [57]: 3.86 µM
- GI50 [41]: 1.17 µM
- TGI [41]: > 50 µM
- GI50 [58]: 1.14 µM
- TGI [58]: > 50 µM
- GI50 [42]: 0.382 µM
- TGI [42]: > 50 µM
- GI50 [43]: 0.905 µM
- TGI [43]: 2.97 µM
- GI50 [44]: 6.42 µM
- TGI [44]: > 50 µM
- GI50 [45]: 1.32 µM
- TGI [45]: > 50 µM
- GI50 [46]: 1.66 µM
- TGI [46]: > 50 µM
- GI50 [47]: 0.605 µM
- TGI [47]: 5.57 µM
- GI50 [48]: 0.247 µM
- TGI [48]: 3.56 µM
